Laboratory results as given in US12508278B2, “Lipid nanoparticle compositions and methods of formulating the same” (ModernaTX, Inc., priority 2021, dated 2025).

Tests used:
Format in all cases: physicochemical
[1] = IG (lipid-mRNA adduct impurity) in binary mixtures of RNA and Compound III, ion pair reversed phase HPLC; settings: for level of IG compared to control binary mixtures: 1 mM agent; for initial rate of IG formation: 5 mM agent, Compound III binaries
Description: To detect and quantify the amount of IG present in LNP formulations comprising polynucleotides and lipid, a protocol was developed (FIG. 2) that included (1) extraction of the polynucleotide molecules (e.g. precipitation, liquid: liquid extraction); (2) assessment of integrity (e.g. purity, length) of the isolated polynucleotides by known methods (e.g. fragment analyzer, gel electrophoresis); and (3) analysis of the isolated polynucleotides by HPLC.
(§1) RNA was extracted from the LNP formulation by precipitation in ammonium acetate in isopropanol; resuspended in water to target a final RNA concentration of 0.1 mg/mL; and assessed by fragment analyzer capillary electrophoresis and ion pair reversed phase HPLC (performed on a Thermo DNApac RP 100×2.1 mm column at 65° C., with mobile phases containing 50 mM dibutylammonium acetate and 100 mM triethylammonium acetate in water and acetonitrile). Elution with an acetonitrile gradient provided an RNA separation primarily driven by mRNA length and sensitive to any added hydrophobic elements. Two prominent peaks were apparent on the HPLC chromatogram (FIG. 2), including a “main peak” comprising non-adduct mRNA and an “IG” peak comprising mRNA with one or more covalent modifications. The mass fraction of RNA containing at least one lipid adduct was determined by integrating the area under the curve (AUC) of all RNA peaks (including products shorter than the full-length product, the full-length product, and the hydrophobic modified RNA) and taking the late-eluting region as an area percent of the total peak area.
Compound III was dissolved in ethanol at a concentration of 4 mg/mL, and the RNA diluted in sodium acetate buffer pH 5.5; the RNA and lipids were then mixed in 25% ethanol. Samples were held at 25° C., and the RNA was periodically extracted by precipitation in isopropanol and analyzed by ion pair reversed phase (FIGS. 5 and 6A, data marked by *).

[2] = IG in Compound III LNPs buffered with PBS or Tris
[3] = IG in Compound VI LNPs stored in PBS or Tris; settings: 20 mM Tris, 8% sucrose, pH 8 vs 1xPBS pH 7.2, stored at 5 C
[4] = IG in binary mixtures of RNA and Compound VI, ion pair reversed phase HPLC; settings: control binary mixture
Method: as §1
To determine if treatment with reducing agents or anti-oxidants confers reductions in the percentage of IG formed in binary mixtures of RNA and Compound VI, binary mixtures were prepared with RNA and Compound VI in which the RNA component was prepared with select reducing agents at 5 mM concentration and the percentage of IG in the resulting binary mixtures was quantified according to the protocol detailed in Example 1. The control binary mixtures of RNA and Compound VI contained IG at ˜55 percent after 1 day, ˜70 percent after 2 days, and ˜80 percent after 13 days. In contrast, treatment of binary mixtures of RNA and Compound VI with select reducing agents conferred IG at ˜45 percent after 1 day, ˜55% after 2 days, and ˜60-70% after 13 days (FIG. 17).

For `O=C(O)CCCC[C@@H]1CCSS1` (racemic) [lipoic acid], the “level of IG compared to control binary mixtures” value ([1]; 25 C, after 18 hours) was “reduced levels of IG”.
With `CCCCCCCCCCCOC(=O)CCCCCN(CCO)CCCCCCCC(=O)OC(CCCCCCCC)CCCCCCCC` [Compound III, heptadecan-9-yl 8-((2-hydroxyethyl)(6-oxo-6-(undecyloxy)hexyl)amino)octanoate] the “IG formation over time” value ([1]; chromatographically purified Compound III, up to 99% purity, no detectable N-oxide) was “still formed IG over time”, the “percentage of IG” value ([1]; control binary mixture (Example 6), stored at 25 C, after 1 day) was roughly 15% and the “percentage of IG” value ([1]; control binary mixture (Example 6), stored at 25 C, after 3 days) was roughly 35%. For the same molecule, the “percentage of IG” value ([1]; control binary mixture (Example 6), stored at 25 C, after 7 days) was roughly 40%, the “percentage of IG” value ([1]; control binary mixture (Example 11), 25 C, after 18 hours) was roughly 20% and the “percentage of IG” value ([1]; control binary mixture without agent (Example 7), 25 C, after 18 hours) was roughly 35%. For the same molecule, the “percentage of IG” value ([1]; control binary mixture without agent (Example 7), after 13 days at 25 C) was roughly 45%, the “percentage of IG” value ([1]; control binary mixture, Compound III not pre-treated (Example 5), after 0 days) was roughly 10% and the “percentage of IG” value ([1]; control binary mixture, Compound III not pre-treated (Example 5), after 5 days) was roughly 40%. For the same molecule, the “percentage of IG” value ([1]; control binary mixture, Compound III not pre-treated (Example 5), after 25 days) was roughly 45%, the “percentage of IG, Tris compared to PBS” value ([2]; 100 mM Tris-HCl pH 7.4 vs 1xPBS) was “lower” and the “percentage of IG over time” value ([2]; buffered with Tris (100 mM Tris-HCl pH 7.4), stored at 5 C or 20 C) was “around 10%”.
With `CCCCCCCCCN(CCCCCCCCC)CCN(CCCCCCCCC)CC(=O)N1CCN(C(=O)CN(CCCCCCCCC)CCCCCCCCC)CC1` [Compound VI] the “percentage of IG, Tris compared to PBS” value [3] was “lower”, the “percentage of IG” value ([4]; after 1 day) was roughly 55% and the “percentage of IG” value ([4]; after 2 days) was roughly 70%. For the same molecule, the “percentage of IG” value ([4]; after 13 days) was roughly 80%.
In the case of `Clc1ccc(C(c2ccc(Cl)cc2)C(Cl)(Cl)Cl)cc1` [DDT, dichlorodiphenyltrichloroethane], the “level of IG compared to control binary mixtures” value ([1]; 25 C, after 18 hours) is reported as “reduced levels of IG”.
For `O[C@H](CS)[C@@H](O)CS` [DTE, dithioerythritol], the “level of IG compared to control binary mixtures” value ([1]; 25 C, after 18 hours) was “reduced levels of IG”.
For `O[C@H](CS)[C@H](O)CS` [DTT, dithiothreitol], the “level of IG compared to control binary mixtures” value ([1]; 25 C, after 18 hours) was “reduced levels of IG”.
With `CC(=O)N[C@@H](CS)C(=O)O` [N-acetyl cysteine] the “level of IG compared to control binary mixtures” value ([1]; 25 C, after 18 hours) was “reduced levels of IG” and the “initial rate of IG formation” value [1] was “effective at eliminating the fast initial rate of IG formation”.
For `O=C(O)CCP(CCC(=O)O)CCC(=O)O` [TCEP, tris(2-carboxyethyl)phosphine], the “level of IG compared to control binary mixtures” value ([1]; 25 C, after 18 hours) was “reduced levels of IG”.
For `NCCSSCCN` [cystamine], the “level of IG compared to control binary mixtures” value ([1]; 25 C, after 18 hours) was “reduced levels of IG”.
For `N[C@@H](CCC(=O)N[C@@H](CS)C(=O)NCC(=O)O)C(=O)O` [glutathione], the “level of IG compared to control binary mixtures” value ([1]; 25 C, after 18 hours) was “reduced levels of IG”.
In the case of `N[C@@H](CCS)C(=O)O` [homo cysteine, homocysteine], the “level of IG compared to control binary mixtures” value ([1]; 25 C, after 18 hours) is reported as “reduced levels of IG”.
In the case of `O=S([O-])S(=O)(=O)[O-].[K+].[K+]` [potassium metabisulfite], the “level of IG compared to control binary mixtures” value ([1]; 25 C, after 18 hours) is reported as “reduced levels of IG” and the “initial rate of IG formation” value [1] is reported as “effective at eliminating the fast initial rate of IG formation”.
With `[BH4-].[Na+]` [sodium borohydrate] the “level of IG compared to control binary mixtures” value ([1]; 25 C, after 18 hours) was “reduced levels of IG”.
For `O=S([O-])S(=O)(=O)[O-].[Na+].[Na+]` [sodium metabisulfite], the “initial rate of IG formation” value [1] was “effective at eliminating the fast initial rate of IG formation” and the “percentage of IG” value ([1]; higher concentrations of agent before formulation, removed by dialysis with 20 mM Tris, t=0 h and 24 hours) was “reduced”.
For `O=C([O-])CS.[Na+]` [sodium thioglycolate], the “level of IG compared to control binary mixtures” value ([1]; 25 C, after 18 hours) was “reduced levels of IG”.
In the case of `O=S([O-])([O-])=S.[Na+].[Na+]` [sodium thiosulfate], the “level of IG compared to control binary mixtures” value ([1]; 25 C, after 18 hours) is reported as “reduced levels of IG”.
